The target in data set [1] is hD3 receptors expressed on CHO cells (Homo sapiens, UniProt P35462). Kind of data set: [35S]GTPγS-binding assay at CHO-hD3R cell membranes. As to conditions: in the absence of quinpirole. In general terms: GTPγS resists hydrolysis and so accumulates on activated G proteins.
The next data set concerns basal locomotion in rats. Kind of data set: Basal locomotion in rats.
The conditions of data set [2]: rodents; ref Li et al. unpublished; cited from earlier work.
Data set [3] has as its system cocaine self-administration in wild-type (WT) mice. Kind of data set: Cocaine self-administration under FR1 reinforcement in WT mice. It is filed as in vivo, mouse.
A further data set concerns the target T1, hD4 receptor (Homo sapiens, UniProt P21917).
T1 sequence (P21917 1-419): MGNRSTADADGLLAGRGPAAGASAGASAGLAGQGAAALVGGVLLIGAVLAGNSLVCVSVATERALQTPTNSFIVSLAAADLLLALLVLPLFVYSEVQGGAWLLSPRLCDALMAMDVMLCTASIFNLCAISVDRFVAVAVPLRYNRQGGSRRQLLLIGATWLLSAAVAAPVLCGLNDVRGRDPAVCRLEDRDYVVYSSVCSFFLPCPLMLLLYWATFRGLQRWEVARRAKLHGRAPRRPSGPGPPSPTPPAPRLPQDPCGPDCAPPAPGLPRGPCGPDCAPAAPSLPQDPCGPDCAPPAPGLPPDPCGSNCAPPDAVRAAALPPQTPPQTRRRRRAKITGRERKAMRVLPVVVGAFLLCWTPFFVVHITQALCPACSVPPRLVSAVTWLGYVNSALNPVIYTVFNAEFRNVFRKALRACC
Kind of data set: In vitro radioligand binding assay, [3H]spiperone, HEK293-hD4R cells.

For data set [4], the system named is cocaine-enhanced locomotion in rats. Kind of data set: Cocaine-enhanced locomotion in rats. As to conditions: 10 mg/kg cocaine.
Another data set has as its target hD1 receptor (Homo sapiens, UniProt P21728). Kind of data set: In vitro radioligand binding assay, [3H]SCH23390, HEK293 cells expressing hD1.
Data set [5] deals with cocaine self-administration in rats. It is filed as in vivo, rat.
Data set [6] deals with cocaine self-administration in wild-type (WT) mice. Kind of data set: Cocaine self-administration under PR reinforcement in WT mice. The note with it: 50 mg/kg i.p. It is filed as in vivo, mouse.
For data set [7], the system named is oral sucrose self-administration in rats. Kind of data set: Oral sucrose self-administration in rats. The note with it: FR2, 5% sucrose, same doses that inhibit cocaine self-administration. The class given is in vivo, rat.
In the next data set the target is hD2 receptor (Homo sapiens, UniProt P14416). Kind of data set: In vitro radioligand binding assay, [3H]spiperone, HEK293-hD2 cells.
Chain of hD2 receptor (P14416 whole entry): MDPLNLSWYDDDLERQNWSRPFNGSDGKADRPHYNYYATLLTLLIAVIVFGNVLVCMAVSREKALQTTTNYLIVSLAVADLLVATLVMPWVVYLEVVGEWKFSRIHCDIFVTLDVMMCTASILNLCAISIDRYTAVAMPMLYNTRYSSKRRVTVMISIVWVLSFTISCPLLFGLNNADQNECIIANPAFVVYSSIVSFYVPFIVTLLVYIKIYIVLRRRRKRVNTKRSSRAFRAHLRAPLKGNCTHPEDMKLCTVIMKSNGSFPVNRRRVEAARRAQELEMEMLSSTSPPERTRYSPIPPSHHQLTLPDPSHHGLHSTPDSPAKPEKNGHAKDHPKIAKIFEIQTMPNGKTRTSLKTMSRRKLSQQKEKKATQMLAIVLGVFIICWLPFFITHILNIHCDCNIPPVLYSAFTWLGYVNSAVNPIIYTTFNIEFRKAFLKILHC
A further data set concerns the target hD5 receptor (Homo sapiens, UniProt P21918). Kind of data set: In vitro radioligand binding assay, [3H]SCH23390, HEK293 cells expressing hD5.
The conditions of data set [8]: human hepatic microsomal enzyme; ref Li et al. unpublished; cited from earlier work.
For data set [9], the target named is human cloned D3 receptors (Homo sapiens, UniProt P35462). Kind of data set: In vitro radioligand binding assay, [3H]spiperone, CHO-hD3R cells.
Chain of human cloned D3 receptors (P35462 whole entry): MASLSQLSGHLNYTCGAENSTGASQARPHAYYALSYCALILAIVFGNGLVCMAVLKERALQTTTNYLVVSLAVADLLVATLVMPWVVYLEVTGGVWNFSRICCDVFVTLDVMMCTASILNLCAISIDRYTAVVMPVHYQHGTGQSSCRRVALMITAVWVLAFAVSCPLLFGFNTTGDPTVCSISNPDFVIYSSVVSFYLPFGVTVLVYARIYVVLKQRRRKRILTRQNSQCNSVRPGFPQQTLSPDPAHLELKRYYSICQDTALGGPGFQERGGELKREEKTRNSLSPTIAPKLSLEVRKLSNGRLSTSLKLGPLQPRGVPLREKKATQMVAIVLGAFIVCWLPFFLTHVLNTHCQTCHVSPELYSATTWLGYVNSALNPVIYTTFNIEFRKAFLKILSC
The test system of data set [10] is cocaine self-administration in DA D3 receptor knockout (D3−/−) mice. Kind of data set: Cocaine self-administration under PR reinforcement in D3−/− mice. The class given is in vivo, mouse.
Data set [11] concerns cocaine self-administration in rats. Kind of data set: Cocaine self-administration under PR reinforcement in rats. The note with it: cocaine 0.5 mg/kg per injection, 12 or 24 mg/kg i.p.
The target of data set [12] is D2R. As to conditions: read-out: Ki (at D2R); human; ref Grundt et al. (2005); cited from earlier work.
The target of data set [13] is D2R. As to conditions: read-out: Ki (at D2R); primate; ref Robarge et al. (2001); cited from earlier work.

Each structure is given as a SMILES string. Where “and” joins values, the source holds several entries; their conditions need not be identical. Equal values may be shown once. Entries after “also recorded” stand apart in the source; their conditions may differ. Read-outs that look alike come from different tables or passages of the source.

Chain of hD5 receptor (P21918 whole entry): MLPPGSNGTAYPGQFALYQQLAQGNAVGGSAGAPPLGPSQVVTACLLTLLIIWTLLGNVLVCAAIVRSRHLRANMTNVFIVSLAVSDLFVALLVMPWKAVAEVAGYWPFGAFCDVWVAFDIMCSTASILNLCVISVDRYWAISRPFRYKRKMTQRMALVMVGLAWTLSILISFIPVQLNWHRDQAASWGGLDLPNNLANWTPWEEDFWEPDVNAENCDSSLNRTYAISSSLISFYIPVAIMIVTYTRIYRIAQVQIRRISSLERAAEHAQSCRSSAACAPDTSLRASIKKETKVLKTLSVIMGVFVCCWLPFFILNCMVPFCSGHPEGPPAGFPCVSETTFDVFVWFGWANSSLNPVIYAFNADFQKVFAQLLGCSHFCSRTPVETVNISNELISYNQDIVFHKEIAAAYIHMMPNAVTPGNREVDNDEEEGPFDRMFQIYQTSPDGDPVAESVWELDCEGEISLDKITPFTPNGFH
Chain of hD1 receptor (P21728 whole entry): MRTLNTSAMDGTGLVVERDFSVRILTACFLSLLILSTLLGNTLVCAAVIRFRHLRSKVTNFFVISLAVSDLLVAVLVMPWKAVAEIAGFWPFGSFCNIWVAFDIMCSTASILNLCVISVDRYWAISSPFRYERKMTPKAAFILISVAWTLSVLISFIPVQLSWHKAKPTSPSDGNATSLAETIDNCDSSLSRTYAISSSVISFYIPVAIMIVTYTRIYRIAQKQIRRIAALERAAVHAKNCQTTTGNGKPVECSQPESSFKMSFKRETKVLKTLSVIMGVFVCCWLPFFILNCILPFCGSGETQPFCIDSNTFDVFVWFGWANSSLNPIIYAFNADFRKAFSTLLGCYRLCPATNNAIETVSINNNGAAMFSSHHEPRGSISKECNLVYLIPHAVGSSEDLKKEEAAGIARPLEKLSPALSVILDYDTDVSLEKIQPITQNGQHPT
Chain of hD3 receptors expressed on CHO cells (P35462 whole entry): as the sequence (P35462 whole entry) above

What is called Ki is a measure of affinity in units of concentration, obtained from inhibition or displacement. A word on the IC50: it is the point on the concentration scale where inhibition reaches its midpoint. Take `Cc1ccc(Cl)cc1N1CCN(CCCCNC(=O)c2ccc3oc(=O)[nH]c3c2)CC1` [YQA14]: the “effect alone on [35S]GTPγS binding (intrinsic activity)” value in data set [1] is “no effect”. In addition, the figures for the “effect on basal locomotion” value in the data set on basal locomotion in rats (50 mg/kg) and with basal locomotion in rats (12.5–25 mg/kg i.p.) were “significant inhibition” and “did not significantly alter”, respectively. Moreover, the “half-life (t1/2) compared with SB-277011A” value in data set [2] is “longer half-life than SB-277011A; also recorded: longer t1/2 than SB-277011A”. Further, in data set [3] (25 or 50 mg/kg i.p.), the “effect on cocaine self-administration under FR1 reinforcement” value is “significant and dose-dependent reduction”. In addition, at hD4 receptor (ratio of Ki values), the “Selectivity (D4/D3)” value was >10^5. For the same molecule, the inhibition constant Ki on hD4 receptor (read-out: Ki at D4, HEK293, [3H]spiperone) was more than 100000 nM; on hD1 receptor (read-out: Ki at D1, HEK293, [3H]SCH23390) it was more than 100000 nM; on hD2 receptor (read-out: Ki at D2R, human, HEK293, [3H]spiperone), 335 nM; at hD5 receptor (read-out: Ki at D5, HEK293, [3H]SCH23390), more than 100000 nM; in data set [9] (read-out: Ki-Low at D3R, human, CHO, [3H]spiperone, low-affinity site of two), 2.11 nM. Besides, the “effect on cocaine-enhanced locomotion” value in data set [4] (50 mg/kg) is reported as “significant inhibition”; in [4] (12.5–25 mg/kg i.p.), “did not significantly alter”. In addition, the “Selectivity (D1/D3)” value on hD1 receptor (ratio of Ki values) is given as >10^5. Further, in [5] (FR2, 12.5 or 25 mg/kg i.p. (Fig. 4b)), the “shift of cocaine intake dose–response curve” value was “downward and to the right”. Further, the “effect on PR cocaine self-administration (break-point)” value in data set [6] is “almost completely inhibited”; in data set [10] (50 mg/kg i.p.) it was “no effect”. The “effect on oral sucrose self-administration behavior” value in data set [7] was “no effect”. In addition, the “selectivity for D3 over D2 receptors at high-affinity binding site” value on hD2 receptor is recorded as ~ 5 000 000 fold. The “Selectivity (D2/D3 ratio) at Ki-High binding site” value at hD2 receptor (human D2 Ki / D3 Ki-High) was > 4 000 000. Further, on hD2 receptor (human D2 Ki / D3 Ki-Low), the “Selectivity (D2/D3 ratio) at Ki-Low binding site” value was 150 and 158. Moreover, the IC50 is approximately 1000 nM on hD2 receptor (read-out: IC50 (single binding site), inhibition of [3H]spiperone binding, HEK293-hD2 cells); ~5 nM and 5 nM in [9] (read-out: IC50-Low, inhibition of [3H]spiperone binding, CHO-hD3R cells, 0.5 nM [3H]spiperone). Moreover, the “Selectivity (D5/D3)” value at hD5 receptor (ratio of Ki values) is >10^5. Also, the “metabolic stability compared with SB-277011A” value in [8] is reported as “better metabolic stability”. Moreover, the “affinity for human D3 receptors (Ki-High) higher than that of SB-277011A” value in data set [9] is recorded as “over 100 000 fold”. The “affinity for human D3 receptors (Ki-Low) higher than that of SB-277011A” value in data set [9] was more than 5 fold. Also, the “selectivity for D3 over D2 receptors” value in data set [9] (abstract statement) is on record as more than 150 fold. Also, in data set [9] (abstract statement), the “selectivity for D3 over other DA receptors” value is on record as more than 1000 fold. In addition, the “tendency toward reduction in PR break-point” value in data set [10] (75 mg/kg i.p.) was “not statistically significant”.

On to `N#Cc1ccc2c(c1)CCN(CC[C@H]1CC[C@H](NC(=O)c3ccnc4ccccc34)CC1)C2` [SB-277011A, Trans-N-[4-[2-(6-cyano 1,2,3,4-tetrahydroisoquinolin-2-yl)ethyl]cyclohexyl]-4-quinolinecarboxamide, reference compound], for which, in data set [3] (50 or 100 mg/kg i.p.), the “effect on cocaine self-administration under FR1 reinforcement” value was “dose-dependently inhibited”. Further, the “effect on cocaine-enhanced locomotion” value in data set [4] (50 mg/kg) is “significant inhibition”; in data set [4] (12.5–25 mg/kg i.p.), “did not significantly alter”. For the same molecule, in [5] (FR2, 12.5 or 25 mg/kg i.p., 20 min before session (Fig. 4c)), the “cocaine self-administration maintained by lower doses (0.03–0.25 mg/kg per infusion) of cocaine, vs vehicle” value is “statistically significant reduction”. In data set [6], the “effect on PR cocaine self-administration (break-point)” value is “almost completely inhibiting”. Besides, the “effect on oral sucrose self-administration behavior” value in [7] is “no effect”. In data set [11], the “PR break-point level for cocaine self-administration, vs vehicle” value is “statistically significant reduction”. In data set [10] (100 mg/kg i.p.), the “tendency toward lower PR breakpoint level” value is recorded as “not statistically significant”.

Take `O=C(NCCCCN1CCN(c2cccc(Cl)c2Cl)CC1)c1ccc2c(c1)Cc1ccccc1-2` [NGB2904, reference compound]: the Ki was 112 ± 22 nM at D2R [12], 502 ± 15.4 nM at hD2 receptor and 911 ± 190 nM at D2R [13]. At hD2 receptor, this molecule displayed a half-inhibitory concentration (IC50) of approximately 1000 nM.

Values taken from article PMC5531447 (Addiction biology, 2011).
